Test results as given in ChEMBL document CHEMBL1201862, “PubChem BioAssay data set” (2004).
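Exposure lasted 48 hours, with cells grown in 96-well plates and compounds tested at five concentrations. At the GI50, growth is halved.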 Calls of active or inactive are those of the source. No stated cut-off is given here; in the data, active = GI50 up to about 1.1 µM and inactive = higher.

Columns and labels:
Assay in all cases: DTP human tumour cell line panel, 48 h
DLD-1 = tested on: DLD-1
M19-MEL = tested on: M19-MEL
DMS-114 = tested on: DMS-114
LXFL 529 = tested on: LXFL 529
HOP-18 = tested on: HOP-18
RXF 631 = tested on: RXF 631
XF498 = tested on: XF498
KM-20L2 = tested on: KM-20L2
SNB-78 = tested on: SNB-78

Compound	GI50 (DLD-1)	GI50 (M19-MEL)	GI50 (DMS-114)	GI50 (LXFL 529)	GI50 (HOP-18)	GI50 (RXF 631)	GI50 (XF498)	GI50 (KM-20L2)	GI50 (SNB-78)
C/N=C(\N=c1/ss/c(=N\C)n1C)N(C)C.[O-][Cl+3]([O-])([O-])O	94.6 µM (inactive)	> 100 µM (inactive)	> 100 µM (inactive)	> 100 µM (inactive)	23.9 µM (inactive)	> 100 µM (inactive)	> 100 µM (inactive)	> 100 µM (inactive)	–
CCOC(=O)C1(C/C=C(/C)Cl)CCCC1=O (stereo unspecified)	71.3 µM (inactive)	> 100 µM (inactive)	71.6 µM (inactive)	> 100 µM (inactive)	> 100 µM (inactive)	95.1 µM (inactive)	> 100 µM (inactive)	47.6 µM (inactive)	–
COC1=CC(=O)[C@H]2[C@H](C)C(c3ccccc3)[C@@]2(C)C1=O (stereo partly specified)	> 100 µM (inactive)	> 100 µM (inactive)	–	> 100 µM (inactive)	–	–	> 100 µM (inactive)	–	> 100 µM (inactive)
N/N=C1\C(=O)N(C2CCCCC2)C(=O)C1C(=O)NC1CCCCC1 (stereo unspecified)	> 100 µM (inactive)	> 100 µM (inactive)	> 100 µM (inactive)	> 100 µM (inactive)	> 100 µM (inactive)	> 100 µM (inactive)	> 100 µM (inactive)	20.7 µM (inactive)	43.1 µM (inactive)
NC(CCc1nc(-c2ccccc2)cs1)C(=O)O (stereo unspecified)	> 100 µM (inactive)	> 100 µM (inactive)	> 100 µM (inactive)	> 100 µM (inactive)	> 100 µM (inactive)	–	–	–	> 100 µM (inactive)
NC1=NN(c2ccccc2)C(=O)C1/C(=N\NC(=O)c1cc2ccccc2cc1O)C(=O)Nc1nc([N+](=O)[O-])cs1 (stereo unspecified)	31.5 µM (inactive)	27.8 µM (inactive)	18.4 µM (inactive)	34.8 µM (inactive)	40 µM (inactive)	22.7 µM (inactive)	36.6 µM (inactive)	40.9 µM (inactive)	> 100 µM (inactive)
Cc1ccc(NC(=O)CCC/C(CC(=O)c2ccc(Br)cc2)=N/NC(=O)CC#N)cc1	> 100 µM (inactive)	> 100 µM (inactive)	> 100 µM (inactive)	> 100 µM (inactive)	–	–	–	> 100 µM (inactive)	> 100 µM (inactive)
COC(=O)C(CCS(=O)(=O)CC(=O)C(=O)Nc1cccc(C(C)=O)c1)C(=O)OC	> 56.2 µM (inactive)	> 100 µM (inactive)	> 39.4 µM (inactive)	> 100 µM (inactive)	> 100 µM (inactive)	> 100 µM (inactive)	> 100 µM (inactive)	> 100 µM (inactive)	> 100 µM (inactive)
COC(=O)/C(=C/c1ccc(OC)cc1)C(C(=O)O)=C1CCCC1	> 100 µM (inactive)	> 100 µM (inactive)	–	> 100 µM (inactive)	–	> 100 µM (inactive)	11.7 µM (inactive)	> 100 µM (inactive)	> 100 µM (inactive)
N#C/C(=C\c1cccc(Cl)c1Cl)c1ccccc1	> 72.8 µM (inactive)	> 84.3 µM (inactive)	43.7 µM (inactive)	54 µM (inactive)	52.2 µM (inactive)	50 µM (inactive)	> 42.3 µM (inactive)	> 100 µM (inactive)	50.2 µM (inactive)
O=C1/C(=C/c2cc(O)c(O)c(O)c2)Oc2cc(O)cc(OC3OC(CO)C(O)C(O)C3O)c21 (stereo unspecified)	18.7 µM (inactive)	18 µM (inactive)	25.2 µM (inactive)	14.6 µM (inactive)	53.5 µM (inactive)	1.81 µM (inactive)	–	21.2 µM (inactive)	19.4 µM (inactive)
Cc1nc2c3c(ccc2nc1O)C(=O)c1ccccc1C3=O	31.8 µM (inactive)	> 100 µM (inactive)	44.8 µM (inactive)	70 µM (inactive)	66.7 µM (inactive)	–	> 100 µM (inactive)	> 100 µM (inactive)	–
CC1CC(C2=CC=CCS2)=Nc2ccccc2S1 (stereo unspecified)	70 µM (inactive)	> 100 µM (inactive)	–	> 100 µM (inactive)	> 100 µM (inactive)	> 100 µM (inactive)	> 100 µM (inactive)	> 100 µM (inactive)	> 100 µM (inactive)
C=CCN1COc2c(cc3c4c(cccc24)C(=O)O3)C1	25.4 µM (inactive)	18.7 µM (inactive)	17.9 µM (inactive)	18.2 µM (inactive)	> 100 µM (inactive)	–	20.2 µM (inactive)	24.3 µM (inactive)	–
COC(=O)C1Cc2c([nH]c3ccccc23)C(C2CCCCC2)N1 (stereo unspecified)	> 100 µM (inactive)	> 100 µM (inactive)	> 100 µM (inactive)	> 100 µM (inactive)	> 100 µM (inactive)	> 100 µM (inactive)	–	> 100 µM (inactive)	–
CC(C)N(C(=O)C12C3C4C5C3C1(C(=O)N(C(C)C)C(C)C)C5C42)C(C)C (stereo unspecified)	> 45.3 µM (inactive)	> 100 µM (inactive)	> 44.5 µM (inactive)	> 80.4 µM (inactive)	> 100 µM (inactive)	–	> 100 µM (inactive)	> 100 µM (inactive)	> 100 µM (inactive)
CCCCCCCCCCCCCCCCCCN(C)C(COC)COP(=O)([O-])OCC[N+](C)(C)C (stereo unspecified)	3.48 µM (inactive)	3.25 µM (inactive)	–	4.26 µM (inactive)	6.08 µM (inactive)	6.85 µM (inactive)	18.6 µM (inactive)	2.08 µM (inactive)	4.5 µM (inactive)
C=CCc1cc(-c2cc(CC=C)c(O)c(CNCCCl)c2)cc(CNCCCl)c1O	21.5 µM (inactive)	17.1 µM (inactive)	21.1 µM (inactive)	15.1 µM (inactive)	–	–	–	17.5 µM (inactive)	39.3 µM (inactive)
CC(=O)OC1CC2C(C)(C)C(=O)C=C[C@]2(C)C2CCC3(C)C(c4ccoc4)[C@@H](O)[C@H]4O[C@]43[C@]12C (stereo partly specified)	20.4 µM (inactive)	18.7 µM (inactive)	20.1 µM (inactive)	18.5 µM (inactive)	21.6 µM (inactive)	–	–	18.5 µM (inactive)	25.6 µM (inactive)
CCc1cccc(C(C)C)c1NC(=O)C(=O)C(C(=O)C(=O)OC)c1nc2ccccc2nc1O (stereo unspecified)	–	> 100 µM (inactive)	> 100 µM (inactive)	> 100 µM (inactive)	> 100 µM (inactive)	> 100 µM (inactive)	> 100 µM (inactive)	> 100 µM (inactive)	> 100 µM (inactive)
COc1ccccc1NC(=O)CC(=O)n1nc(C)c(/N=N/c2ccccc2Cl)c1C	> 100 µM (inactive)	> 100 µM (inactive)	> 100 µM (inactive)	> 100 µM (inactive)	> 100 µM (inactive)	> 31.6 µM (inactive)	> 100 µM (inactive)	> 100 µM (inactive)	5.12 µM (inactive)
COc1cc2c(cc1OC)C1C=NC(C(=O)O)(C2)c2ccccc21 (stereo unspecified)	> 100 µM (inactive)	> 100 µM (inactive)	> 100 µM (inactive)	> 100 µM (inactive)	–	> 100 µM (inactive)	–	> 100 µM (inactive)	> 100 µM (inactive)
CC(C)=CCOc1ccc(-c2coc3cc4c(c(O)c3c2=O)C=CC(C)(C)O4)cc1	50.7 µM (inactive)	47.9 µM (inactive)	18.2 µM (inactive)	20.9 µM (inactive)	–	–	15.9 µM (inactive)	> 100 µM (inactive)	59.3 µM (inactive)
O=[PH](O)c1cc2c3ccccc3ccc2c2ccccc12	> 100 µM (inactive)	> 100 µM (inactive)	> 100 µM (inactive)	> 100 µM (inactive)	> 100 µM (inactive)	–	67.3 µM (inactive)	> 100 µM (inactive)	> 100 µM (inactive)
CC(/C=C/C=C\C=C\C=C(/C)C(=O)NC(C)CO)=C\C(C)C(O)/C(C)=C/C(C)CCc1ccccc1 (stereo unspecified)	13.7 µM (inactive)	5.15 µM (inactive)	< 0.01 µM (active)	3.18 µM (inactive)	10.8 µM (inactive)	–	7.71 µM (inactive)	11.1 µM (inactive)	8.04 µM (inactive)
O=C1C(Cl)C(c2ccccc2)N1n1cnc2ccccc2c1=O (stereo unspecified)	> 100 µM (inactive)	> 100 µM (inactive)	> 100 µM (inactive)	> 100 µM (inactive)	26.5 µM (inactive)	–	> 100 µM (inactive)	> 100 µM (inactive)	> 100 µM (inactive)
Cc1ccc2c(c1)CNc1ccc(C)cc1CN2	> 100 µM (inactive)	> 100 µM (inactive)	> 100 µM (inactive)	> 100 µM (inactive)	> 100 µM (inactive)	–	> 100 µM (inactive)	–	> 100 µM (inactive)
CC(=O)/C=C1\CC(=O)Nc2ccccc2N1	> 100 µM (inactive)	–	> 100 µM (inactive)	> 100 µM (inactive)	–	–	–	> 100 µM (inactive)	> 100 µM (inactive)
CCOc1ccc(NC(=O)CC#N)cc1	> 100 µM (inactive)	> 100 µM (inactive)	–	> 100 µM (inactive)	> 100 µM (inactive)	> 100 µM (inactive)	> 100 µM (inactive)	> 100 µM (inactive)	> 100 µM (inactive)
CCOc1ccccc1NC(=O)C(=O)Cc1nc2ccccc2s1	> 100 µM (inactive)	> 100 µM (inactive)	> 100 µM (inactive)	> 100 µM (inactive)	> 100 µM (inactive)	> 100 µM (inactive)	> 100 µM (inactive)	> 100 µM (inactive)	> 100 µM (inactive)
